Reference: patent US20240059689A1, “PURINE DERIVATIVES AS ANTICANCER AGENTS” (Tango Therapeutics, Inc., priority 2021, published 2024)

Columns and labels:
USP1-UAF1 = USP1-UAF1 (Homo sapiens, UniProt O94782); assay: Ubiquitin Rhodamine assay of USP1-UAF1 activity; assay type: biochemical
Protocol: Certain compounds of the disclosure were assessed for USP1-UAF1 activity in a Ubiquitin Rhodamine assay as described in Biology Example 1.

MDA-MB-436 = assay: Viability assay, BRCA1 mutant cell line MDA-MB-436; assay type: cell-based; conditions: Homo sapiens, MDA-MB-436, viability, BRCA1 mutant MDA-MB-436; read-out: MDA-MB-436 rel IC50
Text: (§1) Table 1 also indicates IC50 values in a viability assay for a non-isogenic pair of BRCA1 mutant (column 5-MDA-MB-436) and BRCA1 WT (column 6—HCC1954) cell lines. These values indicate the effect of treatment with compound on cell survival.

HCC1954 = assay: Viability assay, BRCA1 WT cell line HCC1954; assay type: cell-based; conditions: Homo sapiens, HCC1954, viability, read-out: HCC1954 rel IC50
Text: as §1

monoubiquitinated PCNA = assay: AlphaLISA assay measuring monoubiquitinated PCNA in MDA-MB-436; assay type: cell-based; conditions: Homo sapiens, MDA-MB-436, monoubiquitinated PCNA, read-out: Alpha Lisa IC50
Text: Table 1 also indicates IC50 values for exemplary compounds in an AlphaLISA assay measuring monoubiquitinated PCNA in a BRCA1 mutant cell line (MDA-MB-436; column 7).

USP1-UAF1, sequence (O94782 whole entry): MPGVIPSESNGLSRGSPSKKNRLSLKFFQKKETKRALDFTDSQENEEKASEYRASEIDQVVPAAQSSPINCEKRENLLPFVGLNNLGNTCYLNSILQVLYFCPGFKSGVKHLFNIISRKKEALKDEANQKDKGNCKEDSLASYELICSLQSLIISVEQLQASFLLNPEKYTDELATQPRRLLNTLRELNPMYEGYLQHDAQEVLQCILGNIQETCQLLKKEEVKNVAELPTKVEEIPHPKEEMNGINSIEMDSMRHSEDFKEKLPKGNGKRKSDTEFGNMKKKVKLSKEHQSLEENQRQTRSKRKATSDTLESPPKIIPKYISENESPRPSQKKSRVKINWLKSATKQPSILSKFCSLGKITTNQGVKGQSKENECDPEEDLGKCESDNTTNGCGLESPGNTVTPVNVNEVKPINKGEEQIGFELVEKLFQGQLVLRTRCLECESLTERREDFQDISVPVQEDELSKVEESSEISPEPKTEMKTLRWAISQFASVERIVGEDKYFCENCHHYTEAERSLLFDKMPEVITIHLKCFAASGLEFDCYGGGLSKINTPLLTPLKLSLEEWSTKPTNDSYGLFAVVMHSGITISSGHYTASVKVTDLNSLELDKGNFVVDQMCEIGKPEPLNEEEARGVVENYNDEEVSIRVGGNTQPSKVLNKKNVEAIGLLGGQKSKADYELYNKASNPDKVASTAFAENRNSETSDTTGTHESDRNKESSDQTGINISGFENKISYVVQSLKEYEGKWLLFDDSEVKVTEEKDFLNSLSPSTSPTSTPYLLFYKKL
USP1-UAF1, sequence (Q8TAF3 whole entry partner): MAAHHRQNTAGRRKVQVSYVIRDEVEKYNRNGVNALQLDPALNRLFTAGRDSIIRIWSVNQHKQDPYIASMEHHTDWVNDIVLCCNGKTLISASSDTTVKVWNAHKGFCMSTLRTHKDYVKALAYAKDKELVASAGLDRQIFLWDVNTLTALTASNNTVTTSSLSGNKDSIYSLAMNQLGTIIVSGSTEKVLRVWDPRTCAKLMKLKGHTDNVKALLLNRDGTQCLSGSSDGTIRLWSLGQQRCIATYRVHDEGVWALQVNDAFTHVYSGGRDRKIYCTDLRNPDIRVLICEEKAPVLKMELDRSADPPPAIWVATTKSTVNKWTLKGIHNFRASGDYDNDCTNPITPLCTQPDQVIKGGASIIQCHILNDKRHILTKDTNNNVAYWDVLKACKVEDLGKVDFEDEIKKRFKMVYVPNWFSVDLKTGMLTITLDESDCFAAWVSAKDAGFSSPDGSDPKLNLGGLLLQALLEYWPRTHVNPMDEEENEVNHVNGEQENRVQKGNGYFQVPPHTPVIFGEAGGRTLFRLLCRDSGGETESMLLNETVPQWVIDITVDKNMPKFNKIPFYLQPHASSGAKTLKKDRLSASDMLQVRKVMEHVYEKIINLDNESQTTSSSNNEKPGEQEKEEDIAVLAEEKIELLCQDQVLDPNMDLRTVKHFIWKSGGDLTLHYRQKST

SMILES | IC50 (USP1-UAF1) [nM] | IC50 (MDA-MB-436) [nM] | IC50 (HCC1954) [nM] | IC50 (monoubiquitinated PCNA) [nM]
COc1ncnc(C2CC2)c1-c1ncc2c(n1)n(Cc1ccc(-c3nc(C(F)(F)F)cn3C)cc1)c(=N)n2CC(F)(F)F [Example T-095, 2-(4-cyclopropyl-6-methoxy-pyrimidin-5-yl)-9-[[4-[1-methyl-4-(trifluoromethyl)imidazol-2-yl]phenyl]methyl]-7-(2,2,2-trifluoroethyl)purin-8-imine] | 30 to 100 | < 100 | ≥ 10000 | < 100
COc1ncccc1-c1ncc2c(n1)n(Cc1ccc(-c3nc(C(F)(F)F)cn3C)cc1)c(=N)n2CC(F)(F)F [Example T-097, 2-(2-methoxy-3-pyridyl)-9-[[4-[1-methyl-4-(trifluoromethyl)imidazol-2-yl]phenyl]methyl]-7-(2,2,2-trifluoroethyl)purin-8-imine] | 30 to 100 | 100 to 250 | ≥ 10000 | 250 to 10000
COc1ncnc(C2CC2)c1-c1ncc2c(n1)n(Cc1ccc(-n3nc(C(F)(F)F)cc3C)cc1)c(=N)n2CC(F)(F)F [Example T-098, 2-(4-cyclopropyl-6-methoxy-pyrimidin-5-yl)-9-[[4-[5-methyl-3-(trifluoromethyl)pyrazol-1-yl]phenyl]methyl]-7-(2,2,2-trifluoroethyl)purin-8-imine] | 30 to 100 | < 100 | ≥ 10000 | 100 to 250
CC(C)c1ccccc1-c1ncc2c(n1)n(Cc1ccc(-c3nc(C(F)(F)F)cn3C3CN(C)C3)cc1)c(=N)n2C [Example T-099, 2-(2-isopropylphenyl)-7-methyl-9-(4-(1-(1-methylazetidin-3-yl)-4-(trifluoromethyl)-1H-imidazol-2-yl)benzyl)-7H-purin-8(9H)-imine] | 100 to 10000 | < 100 | ≥ 10000 | 100 to 250
COc1ncnc(C2CC2)c1-c1ncc2c(n1)n(Cc1ccc(-n3nc(C(F)F)cc3OC)cc1)c(=N)n2CC(F)(F)F [Example T-100, 2-(4-cyclopropyl-6-methoxy-pyrimidin-5-yl)-9-[[4-[3-(difluoromethyl)-5-methoxy-pyrazol-1-yl]phenyl]methyl]-7-(2,2,2-trifluoroethyl)purin-8-imine] | 100 to 10000 | 100 to 250 | ≥ 10000 | 100 to 250
COc1nc(C)nc(C2CC2)c1-c1ncc2c(n1)n(Cc1ccc(-c3nc(C(F)(F)F)cn3C)cc1)c(=N)n2CC(F)(F)F [Example T-102, 2-(4-cyclopropyl-6-methoxy-2-methyl-pyrimidin-5-yl)-9-[[4-[1-methyl-4-(trifluoromethyl)imidazol-2-yl]phenyl]methyl]-7-(2,2,2-trifluoroethyl)purin-8-imine] | 100 to 10000 | 100 to 250 | ≥ 10000 | 250 to 10000
Cn1cc(C(F)(F)F)nc1-c1ccc(Cn2c(=N)n(C)c3cnc(-c4c(C5CC5)ncnc4C(F)(F)F)nc32)cc1 [Example T-103, 2-(4-cyclopropyl-6-(trifluoromethyl)pyrimidin-5-yl)-7-methyl-9-(4-(1-methyl-4-(trifluoromethyl)-1H-imidazol-2-yl)benzyl)-7H-purin-8(9H)-imine] | 30 to 100 | 100 to 250 | ≥ 10000 | 100 to 250
COc1ncnc(C2CC2)c1-c1ncc2c(n1)n(Cc1ccc(-c3nc(C(F)(F)F)oc3C)cc1)c(=N)n2CC(F)(F)F [Example T-104, 2-(4-cyclopropyl-6-methoxy-pyrimidin-5-yl)-9-[[4-[5-methyl-2-(trifluoromethyl)oxazol-4-yl]phenyl]methyl]-7-(2,2,2-trifluoroethyl)purin-8-imine] | 100 to 10000 | 100 to 250 | ≥ 10000 | 250 to 10000
[2H]C([2H])([2H])Oc1ncnc(C2CC2)c1-c1ncc2c(n1)n(Cc1ccc(-c3nc(C(F)(F)F)cn3C)c(CC)c1)c(=N)n2CC(F)(F)F [Example T-105, 2-[4-cyclopropyl-6-(trideuteriomethoxy)pyrimidin-5-yl]-9-[[3-ethyl-4-[1-methyl-4-(trifluoromethyl)imidazol-2-yl]phenyl]methyl]-7-(2,2,2-trifluoroethyl)purin-8-imine] | 100 to 10000 | 250 to 10000 | ≥ 10000 | 250 to 10000
CCn1cc(C(F)(F)F)nc1-c1ccc([C@@H](C)n2c(=N)n(CC(F)(F)F)c3cnc(-c4c(OC)ncnc4C4CC4)nc32)cc1 [Example T-106, (R)-2-(4-cyclopropyl-6-methoxypyrimidin-5-yl)-9-(1-(4-(1-ethyl-4-(trifluoromethyl)-1H-imidazol-2-yl)phenyl)ethyl)-7-(2,2,2-trifluoroethyl)-7H-purin-8(9H)-imine] | < 30 | < 100 | ≥ 10000 | < 100
COc1ncnc(C2CC2)c1-c1ncc2c(n1)n(Cc1ccc(-c3nc(C(F)(F)F)cn3C)c(C)c1)c(=N)n2CC(F)(F)F [Example T-107, 2-(4-cyclopropyl-6-methoxy-pyrimidin-5-yl)-9-[[3-methyl-4-[1-methyl-4-(trifluoromethyl)imidazol-2-yl]phenyl]methyl]-7-(2,2,2-trifluoroethyl)purin-8-imine] | 100 to 10000 | 100 to 250 | ≥ 10000 | 100 to 250
COc1ncnc(C2CC2)c1-c1ncc2c(n1)n(Cc1ccc(-c3nc(C(F)(F)F)cn3C(C)C)cc1)c(=N)n2CC(F)(F)F [Example T-108] | 30 to 100 | < 100 | ≥ 10000 | < 100
COc1ncnc(C2CC2)c1-c1ncc2c(n1)n([C@H](C)c1ccc(-n3nc(C(F)(F)F)cc3OC)cc1)c(=N)n2CC(F)(F)F [Example T-109, 2-(4-cyclopropyl-6-methoxy-pyrimidin-5-yl)-9-[(1R)-1-[4-[5-methoxy-3-(trifluoromethyl)pyrazol-1-yl]phenyl]ethyl]-7-(2,2,2-trifluoroethyl)purin-8-imine] | < 30 | < 100 | ≥ 10000 | < 100
COc1ncnc(OC)c1-c1ncc2c(n1)n(Cc1ccc(-c3nc(C(F)(F)F)cn3C)cc1)c(=N)n2CC(F)(F)F [Example T-110, 2-(4,6-dimethoxypyrimidin-5-yl)-9-[[4-[1-methyl-4-(trifluoromethyl)imidazol-2-yl]phenyl]methyl]-7-(2,2,2-trifluoroethyl)purin-8-imine] | 30 to 100 | 100 to 250 | ≥ 10000 | 250 to 10000
COc1ncnc(C2CC2(F)F)c1-c1ncc2c(n1)n(Cc1ccc(-c3nc(C(F)(F)F)cn3C)cc1)c(=N)n2C (stereo not drawn) [Example T-111, 2-(4-(2,2-difluorocyclopropyl)-6-methoxypyrimidin-5-yl)-7-methyl-9-(4-(1-methyl-4-(trifluoromethyl)-1H-imidazol-2-yl)benzyl)-7H-purin-8(9H)-imine] | 30 to 100 | < 100 | ≥ 10000 | < 100
Cn1cc(C(F)(F)F)nc1-c1ccc(Cn2c(=N)n(CC(F)(F)F)c3cnc(-c4c(OC(F)(F)F)ccnc4C4CC4)nc32)cc1 [Example T-112, 2-[2-cyclopropyl-4-(trifluoromethoxy)-3-pyridyl]-9-[[4-[1-methyl-4-(trifluoromethyl)imidazol-2-yl]phenyl]methyl]-7-(2,2,2-trifluoroethyl)purin-8-imine] | 30 to 100 | < 100 | ≥ 10000 | 100 to 250
COc1ncnc(C2CC2)c1-c1ncc2c(n1)n(Cc1ccc(-n3nc(C(F)(F)F)cc3OC)cc1)c(=N)n2CC(F)F [Example T-113, 2-(4-cyclopropyl-6-methoxy-pyrimidin-5-yl)-7-(2,2-difluoroethyl)-9-[[4-[5-methoxy-3-(trifluoromethyl)pyrazol-1-yl]phenyl]methyl]purin-8-imine] | < 30 | < 100 | ≥ 10000 | < 100
CCOc1cc(C(F)(F)F)nn1-c1ccc(Cn2c(=N)n(CC(F)(F)F)c3cnc(-c4c(OC)ncnc4C4CC4)nc32)cc1 [Example T-114] | 30 to 100 | < 100 | ≥ 10000 | < 100
Cc1ccnc(OC(F)F)c1-c1ncc2c(n1)n(Cc1ccc(-c3nc(C(F)(F)F)cn3C)cc1)c(=N)n2CC(F)(F)F [Example T-115, 2-(2-(difluoromethoxy)-4-methylpyridin-3-yl)-9-(4-(1-methyl-4-(trifluoromethyl)-1H-imidazol-2-yl)benzyl)-7-(2,2,2-trifluoroethyl)-7H-purin-8(9H)-imine] | 30 to 100 | 100 to 250 | 250 to 10000 | 100 to 250
COc1ncnc(C2CC2(F)F)c1-c1ncc2c(n1)n(Cc1ccc(-c3nc(C(F)(F)F)cn3C)cc1)c(=N)n2CC(F)(F)F (stereo not drawn) [Example T-116, 2-[4-(2,2-difluorocyclopropyl)-6-methoxy-pyrimidin-5-yl]-9-[[4-[1-methyl-4-(trifluoromethyl)imidazol-2-yl]phenyl]methyl]-7-(2,2,2-trifluoroethyl)purin-8-imine] | 100 to 10000 | < 100 | ≥ 10000 | < 100
COc1ncnc(C2CC2)c1-c1ncc2c(n1)n(Cc1ccc(-n3nc(C(F)(F)F)cc3OC)cc1)c(=N)n2CC(F)(F)F [Example T-117, 2-(4-cyclopropyl-6-methoxy-pyrimidin-5-yl)-9-[[4-[5-methoxy-3-(trifluoromethyl)pyrazol-1-yl]phenyl]methyl]-7-(2,2,2-trifluoroethyl)purin-8-imine] | 30 to 100 | < 100 | ≥ 10000 | < 100
